Values of other authors in US20060084635A1, “Aspirin and vitamin and/or trace element compositions for the amelioration and treatment of vascular disease” (priority 1993, published 2006).
Entries after “also recorded” stand apart in the source; their conditions may differ. Like-named read-outs stand apart in the source and are kept apart here. Values belong to the compound of their own block, whether it stands above or below them.

Key:
vascular tissue = system: vascular tissue; parameters: key: + Beneficial; 0 No Effect; − Detrimental
[1] = system: prostaglandins in the vascular wall and platelets
[2] = system: retirement community residents; conditions: for All Deaths RR / Ischemic Heart Disease RR / Myocardial Infarction RR / Other Heart Disease RR / Stroke RR / Total Cardiovascular Deaths RR: relative risk vs Aspirin− Vitamin−
[3] = system: serum cholesterol and triglycerides; conditions: for blood serum levels of cholesterol and triglycerides: in vivo
atherosclerotic lesions = conditions: animals fed an atherogenic diet
[4] = system: immune-triggered endothelial damage
[5] = in sufficient amounts
[6] = system: vascular lesions in branches of the aorta and cerebral arteries; conditions: rats; diet containing seven times the level of zinc required for normal growth
[7] = system: vascular wall wound healing; conditions: rat, in vivo

Compound: [Cu] [Copper]
Anti-Aggregant (vascular tissue; Table 2): 0
Decreased Formation of Clots (vascular tissue; Table 2): 0
Decreased Immune-Induced Lesions (vascular tissue; Table 2): +
Decreased Peroxidation (vascular tissue; Table 2): 0
Decreases Serum Cholesterol (vascular tissue; Table 2): +
Inhibition of Cholesterol Migration (vascular tissue; Table 2): 0
Platelet Activity (vascular tissue; Table 2): 0
Prostaglandin Synthesis (vascular tissue; Table 2): 0
Speeding of Wound Healing (vascular tissue; Table 2): +

Compound: CC(=O)Oc1ccccc1C(=O)O [Aspirin, aspirin]
tendency of blood clot formation (platelets; through platelet activity): reduces the tendency of blood clot formation
Anti-Aggregant (vascular tissue; Table 1): +
Decreased Formation of Clots (vascular tissue; Table 1): +
Decreased Immune-Induced Lesions (vascular tissue; Table 1): 0
Decreased Peroxidation (vascular tissue; Table 1): 0
Decreases Serum Cholesterol (vascular tissue; Table 1): 0
Inhibition of Cholesterol Migration (vascular tissue; Table 1): +
Platelet Activity (vascular tissue; Table 1): −
Prostaglandin Synthesis (vascular tissue; Table 1): −
Speeding of Wound Healing (vascular tissue; Table 1): −
platelet prostaglandin function [1]: irreversibly block platelet prostaglandin function
prostaglandin activity in the vascular wall [1]: reversibly decreases prostaglandin activity in the vascular wall

Compound: aspirin [Aspirin+ Vitamin−]
All Deaths No. ([2]; Men): 45
Ischemic Heart Disease No. ([2]; Men): 8
Myocardial Infarction No. ([2]; Men): 7
Other Heart Disease No. ([2]; Men): 6
Stroke No. ([2]; Men): 2
Total Cardiovascular Deaths No. ([2]; Men): 24
All Deaths RR ([2]; Men): 1.00
Ischemic Heart Disease RR ([2]; Men): 1.40
Myocardial Infarction RR ([2]; Men): 0.88
Other Heart Disease RR ([2]; Men): 1.52
Stroke RR ([2]; Men): 0.50
Total Cardiovascular Deaths RR ([2]; Men): 1.09
All Deaths No. ([2]; Women): 47
Ischemic Heart Disease No. ([2]; Women): 9
Myocardial Infarction No. ([2]; Women): 4
Other Heart Disease No. ([2]; Women): 6
Stroke No. ([2]; Women): 4
Total Cardiovascular Deaths No. ([2]; Women): 26
All Deaths RR ([2]; Women): 0.82
Ischemic Heart Disease RR ([2]; Women): 1.06
Myocardial Infarction RR ([2]; Women): 0.49
Other Heart Disease RR ([2]; Women): 0.81
Stroke RR ([2]; Women): 0.68
Total Cardiovascular Deaths RR ([2]; Women): 0.91

Compound: [Cr] [Chromium]
Anti-Aggregant (vascular tissue; Table 2): 0
Decreased Formation of Clots (vascular tissue; Table 2): 0
Decreased Immune-Induced Lesions (vascular tissue; Table 2): 0
Decreased Peroxidation (vascular tissue; Table 2): 0
Decreases Serum Cholesterol (vascular tissue; Table 2): +
Inhibition of Cholesterol Migration (vascular tissue; Table 2): 0
Platelet Activity (vascular tissue; Table 2): 0
Prostaglandin Synthesis (vascular tissue; Table 2): 0
Speeding of Wound Healing (vascular tissue; Table 2): 0

Compound: Vitamin E
serum and liver cholesterol levels ([3]; supplementation in vitamin E deficient animals): decrease serum and liver cholesterol levels in a dose- and time-dependent manner
anti-aggregant activity (platelets): mild anti-aggregant effect
severity of lesions (atherosclerotic lesions): reduce the severity of lesions
Anti-Aggregant (vascular tissue; Table 1): +
Decreased Formation of Clots (vascular tissue; Table 1): 0
Decreased Immune-Induced Lesions (vascular tissue; Table 1): +
Decreased Peroxidation (vascular tissue; Table 1): +
Decreases Serum Cholesterol (vascular tissue; Table 1): +
Inhibition of Cholesterol Migration (vascular tissue; Table 1): 0
Platelet Activity (vascular tissue; Table 1): 0
Prostaglandin Synthesis (vascular tissue; Table 1): +
Speeding of Wound Healing (vascular tissue; Table 1): 0
immune-triggered endothelial damage / immune-induced lesions [4]: preventative effect on immune-induced lesions; also recorded: protective effect

Compound: Cc1ncc(CO)c(CO)c1O.Cl [Vitamin B6]
Anti-Aggregant (vascular tissue; Table 1): 0
Decreased Formation of Clots (vascular tissue; Table 1): 0
Decreased Immune-Induced Lesions (vascular tissue; Table 1): 0
Decreased Peroxidation (vascular tissue; Table 1): 0
Decreases Serum Cholesterol (vascular tissue; Table 1): +
Inhibition of Cholesterol Migration (vascular tissue; Table 1): 0
Platelet Activity (vascular tissue; Table 1): 0
Prostaglandin Synthesis (vascular tissue; Table 1): 0
Speeding of Wound Healing (vascular tissue; Table 1): 0

Compound: [Mg+2] [Magnesium]
Anti-Aggregant (vascular tissue; Table 2): 0
Decreased Formation of Clots (vascular tissue; Table 2): 0
Decreased Immune-Induced Lesions (vascular tissue; Table 2): 0
Decreased Peroxidation (vascular tissue; Table 2): 0
Decreases Serum Cholesterol (vascular tissue; Table 2): +
Inhibition of Cholesterol Migration (vascular tissue; Table 2): 0
Platelet Activity (vascular tissue; Table 2): +
Prostaglandin Synthesis (vascular tissue; Table 2): 0
Speeding of Wound Healing (vascular tissue; Table 2): +

undesirable effects of supplements [5]: skin flush and dizziness
Compound: O=C(O)c1cccnc1 [Niacin, Niacin (nictotinic acid)]
blood serum levels of cholesterol and triglycerides [3]: reduce the blood serum levels of cholesterol and triglycerides
blood serum levels of cholesterol and triglycerides ([3]; listed as niacin): reduced
Anti-Aggregant (vascular tissue; Table 1): 0
Decreased Formation of Clots (vascular tissue; Table 1): 0
Decreased Immune-Induced Lesions (vascular tissue; Table 1): 0
Decreased Peroxidation (vascular tissue; Table 1): 0
Decreases Serum Cholesterol (vascular tissue; Table 1): +
Inhibition of Cholesterol Migration (vascular tissue; Table 1): 0
Platelet Activity (vascular tissue; Table 1): 0
Prostaglandin Synthesis (vascular tissue; Table 1): +
Speeding of Wound Healing (vascular tissue; Table 1): 0

Compound: [Se] [Selenium]
Anti-Aggregant (vascular tissue; Table 2): +
Decreased Formation of Clots (vascular tissue; Table 2): 0
Decreased Immune-Induced Lesions (vascular tissue; Table 2): +
Decreased Peroxidation (vascular tissue; Table 2): +
Decreases Serum Cholesterol (vascular tissue; Table 2): +
Inhibition of Cholesterol Migration (vascular tissue; Table 2): 0
Platelet Activity (vascular tissue; Table 2): +
Prostaglandin Synthesis (vascular tissue; Table 2): +
Speeding of Wound Healing (vascular tissue; Table 2): 0

Compound: O=C1O[C@H]([C@@H](O)CO)C(O)=C1O [Vitamin C]
Anti-Aggregant (vascular tissue; Table 1): 0
Decreased Formation of Clots (vascular tissue; Table 1): 0
Decreased Immune-Induced Lesions (vascular tissue; Table 1): 0
Decreased Peroxidation (vascular tissue; Table 1): 0
Decreases Serum Cholesterol (vascular tissue; Table 1): +
Inhibition of Cholesterol Migration (vascular tissue; Table 1): 0
Platelet Activity (vascular tissue; Table 1): 0
Prostaglandin Synthesis (vascular tissue; Table 1): +
Speeding of Wound Healing (vascular tissue; Table 1): 0
prostaglandin activity in the vascular wall [1]: increases the level of activity of prostaglandins in the vascular wall
prostaglandin activity in the vascular wall ([1]; listed as vitamin C): increased

Compound: [Zn] [Zinc]
incidence and severity of vascular lesions / atherosclerosis [6]: reduced incidence of atherosclerosis in rats; also recorded: greatly reduced
Anti-Aggregant (vascular tissue; Table 2): 0
Decreased Formation of Clots (vascular tissue; Table 2): 0
Decreased Immune-Induced Lesions (vascular tissue; Table 2): 0
Decreased Peroxidation (vascular tissue; Table 2): 0
Decreases Serum Cholesterol (vascular tissue; Table 2): +
Inhibition of Cholesterol Migration (vascular tissue; Table 2): 0
Platelet Activity (vascular tissue; Table 2): 0
Prostaglandin Synthesis (vascular tissue; Table 2): 0
Speeding of Wound Healing (vascular tissue; Table 2): 0

Compound: aspirin [Aspirin++ Vitamin−]
All Deaths No. ([2]; Men): 65
Ischemic Heart Disease No. ([2]; Men): 10
Myocardial Infarction No. ([2]; Men): 7
Other Heart Disease No. ([2]; Men): 7
Stroke No. ([2]; Men): 7
Total Cardiovascular Deaths No. ([2]; Men): 27
All Deaths RR ([2]; Men): 1.35
Ischemic Heart Disease RR ([2]; Men): 1.37
Myocardial Infarction RR ([2]; Men): 0.91
Other Heart Disease RR ([2]; Men): 1.57
Stroke RR ([2]; Men): 1.53
Total Cardiovascular Deaths RR ([2]; Men): 1.09
All Deaths No. ([2]; Women): 77
Ischemic Heart Disease No. ([2]; Women): 14
Myocardial Infarction No. ([2]; Women): 10
Other Heart Disease No. ([2]; Women): 12
Stroke No. ([2]; Women): 9
Total Cardiovascular Deaths No. ([2]; Women): 45
All Deaths RR ([2]; Women): 1.36
Ischemic Heart Disease RR ([2]; Women): 1.50
Myocardial Infarction RR ([2]; Women): 1.25
Other Heart Disease RR ([2]; Women): 1.41
Stroke RR ([2]; Women): 1.58
Total Cardiovascular Deaths RR ([2]; Women): 1.48

serum cholesterol levels ([3]; at higher doses): net increase in serum cholesterol levels
Compound: Vitamin A
vascular wall wound healing / arterial healing [7]: improve arterial healing; also recorded: speeds vascular wall wound healing
anti-aggregant activity (platelets): mild anti-aggregant activity
Anti-Aggregant (vascular tissue; Table 1): +
Decreased Formation of Clots (vascular tissue; Table 1): 0
Decreased Immune-Induced Lesions (vascular tissue; Table 1): 0
Decreased Peroxidation (vascular tissue; Table 1): 0
Decreases Serum Cholesterol (vascular tissue; Table 1): −
Inhibition of Cholesterol Migration (vascular tissue; Table 1): 0
Platelet Activity (vascular tissue; Table 1): 0
Prostaglandin Synthesis (vascular tissue; Table 1): 0
Speeding of Wound Healing (vascular tissue; Table 1): +
immune-triggered endothelial damage / immune-induced lesions [4]: preventative effect on immune-induced lesions
